Test results published in patent US20240000872A1, “NOVEL BACTERIOPHAGE THAT LYSES ACINETOBACTER GENUS BACTERIA HAVING RESISTANCE TO ANTIBIOTICS” (priority 2020, published 2024).

Tested on: Acinetobacter baumannii strains
Experiment: Antibiotic susceptibility test (CLSI disk diffusion test method, read per CLSI 2016); note: key: ‘S’ means susceptible; ‘I’ means intermediate; ‘R’ means resistant
Assay type: cell-based

C[C@@H](O)[C@H]1C(=O)N2C(C(=O)O)=C(SCCN=CN)C[C@H]12 [Imipenem, imipenem]
R: antibiotic susceptibility class (host strain YMC14/01/C29) | antibiotic susceptibility class (host strain YMC14/01/IP122) | antibiotic susceptibility class (host strain YMC14/01/L8) | antibiotic susceptibility class (host strain YMC14/01/P31) | antibiotic susceptibility class (host strain YMC14/01/P117) | antibiotic susceptibility class (host strain YMC14/01/P224) | antibiotic susceptibility class (host strain YMC14/01/P727) | antibiotic susceptibility class (host strain YMC14/01/P728) | antibiotic susceptibility class (host strain YMC14/01/R130) | antibiotic susceptibility class (host strain YMC14/01/R160) | antibiotic susceptibility class (host strain YMC14/01/R198) | antibiotic susceptibility class (host strain YMC14/01/R257) | antibiotic susceptibility class (host strain YMC14/01/R270) | antibiotic susceptibility class (host strain YMC14/01/R324) | antibiotic susceptibility class (host strain YMC14/01/R443) | antibiotic susceptibility class (host strain YMC14/01/R451) | antibiotic susceptibility class (host strain YMC14/01/R560) | antibiotic susceptibility class (host strain YMC14/01/R617) | antibiotic susceptibility class (host strain YMC14/01/R671) | antibiotic susceptibility class (host strain YMC14/01/R732) | antibiotic susceptibility class (host strain YMC14/01/R767) | antibiotic susceptibility class (host strain YMC14/01/R904) | antibiotic susceptibility class (host strain YMC14/01/R905) | antibiotic susceptibility class (host strain YMC14/01/R921) | antibiotic susceptibility class (host strain YMC14/01/R941) | antibiotic susceptibility class (host strain YMC14/01/R958) | antibiotic susceptibility class (host strain YMC14/01/R1006) | antibiotic susceptibility class (host strain YMC14/01/R1199) | antibiotic susceptibility class (host strain YMC14/01/R1659) | antibiotic susceptibility class (host strain YMC14/01/R1722) | antibiotic susceptibility class (host strain YMC14/01/R1752) | antibiotic susceptibility class (host strain YMC14/01/R2429) | antibiotic susceptibility class (host strain YMC14/01/R2572) | antibiotic susceptibility class (host strain YMC14/01/R2855) | antibiotic susceptibility class (host strain YMC14/01/R2945) | antibiotic susceptibility class (host strain YMC14/01/R3007) | antibiotic susceptibility class (host strain YMC14/01/R3129) | antibiotic susceptibility class (host strain YMC14/01/R3317) | antibiotic susceptibility class (host strain YMC14/01/R3474) | antibiotic susceptibility class (host strain YMC14/01/R3574) | antibiotic susceptibility class (host strain YMC14/01/U313) | antibiotic susceptibility class (host strain YMC14/01/U318) | antibiotic susceptibility class (host strain YMC14/02/L18) | antibiotic susceptibility class (host strain YMC14/02/P47) | antibiotic susceptibility class (host strain YMC14/02/R1860) | antibiotic susceptibility class (host strain YMC14/02/R2417) | antibiotic susceptibility class (host strain YMC14/02/R2599) | antibiotic susceptibility class (host strain YMC14/02/R2668) | antibiotic susceptibility class (host strain YMC14/02/R2758) | antibiotic susceptibility class (host strain YMC14/02/R2781) | antibiotic susceptibility class (host strain YMC14/02/R3106) | antibiotic susceptibility class (host strain YMC14/02/R3419) | antibiotic susceptibility class (host strain YMC14/02/U1607) | antibiotic susceptibility class (host strain YMC14/03/L9) | antibiotic susceptibility class (host strain YMC14/03/P471) | antibiotic susceptibility class (host strain YMC14/03/R122) | antibiotic susceptibility class (host strain YMC14/03/R217) | antibiotic susceptibility class (host strain YMC14/03/R380) | antibiotic susceptibility class (host strain YMC14/03/R618) | antibiotic susceptibility class (host strain YMC14/03/R2144) | antibiotic susceptibility class (host strain YMC14/03/U4616) | antibiotic susceptibility class (host strain YMC14/04/R1078) | antibiotic susceptibility class (host strain YMC14/04/R1080) | antibiotic susceptibility S/I/R (host strain YMC14/06/R2359) | susceptibility category (S/I/R) (host strain YMC14/06/R2359) | antibiotic susceptibility S/I/R (host strain YMC14/08/R1169) | susceptibility category (S/I/R) (host strain YMC14/08/R1169) | antibiotic susceptibility S/I/R (host strain YMC14/08/T90) | susceptibility category (S/I/R) (host strain YMC14/08/T90) | antibiotic susceptibility S/I/R (host strain YMC15/02/R436) | susceptibility category (S/I/R) (host strain YMC15/02/R436) | antibiotic susceptibility S/I/R (host strain YMC15/02/T28) | susceptibility category (S/I/R) (host strain YMC15/02/T28) | antibiotic susceptibility S/I/R (host strain YMC15/03/R1604) | susceptibility category (S/I/R) (host strain YMC15/03/R1604) | antibiotic susceptibility S/I/R (host strain YMC15/09/R1869) | susceptibility category (S/I/R) (host strain YMC15/09/R1869) | antibiotic susceptibility S/I/R (host strain YMC16/01/P11) | susceptibility category (S/I/R) (host strain YMC16/01/P11) | antibiotic susceptibility S/I/R (host strain YMC16/01/R123) | susceptibility category (S/I/R) (host strain YMC16/01/R123) | antibiotic susceptibility S/I/R (host strain YMC16/01/R198) | susceptibility category (S/I/R) (host strain YMC16/01/R198) | antibiotic susceptibility S/I/R (host strain YMC16/01/R353) | susceptibility category (S/I/R) (host strain YMC16/01/R353) | antibiotic susceptibility S/I/R (host strain YMC16/01/R380) | susceptibility category (S/I/R) (host strain YMC16/01/R380) | antibiotic susceptibility S/I/R (host strain YMC16/01/R397) | susceptibility category (S/I/R) (host strain YMC16/01/R397) | antibiotic susceptibility S/I/R (host strain YMC16/01/R405) | susceptibility category (S/I/R) (host strain YMC16/01/R405) | antibiotic susceptibility S/I/R (host strain YMC16/03/R4461) | susceptibility category (S/I/R) (host strain YMC16/03/R4461) | antibiotic susceptibility S/I/R (host strain YMC16/05/R2210) | susceptibility category (S/I/R) (host strain YMC16/05/R2210) | antibiotic susceptibility S/I/R (host strain YMC16/07/R2512) | susceptibility category (S/I/R) (host strain YMC16/07/R2512) | antibiotic susceptibility S/I/R (host strain YMC16/09/R2471) | susceptibility category (S/I/R) (host strain YMC16/09/R2471) | antibiotic susceptibility S/I/R (host strain YMC16/10/R2537) | susceptibility category (S/I/R) (host strain YMC16/10/R2537) | antibiotic susceptibility S/I/R (host strain YMC16/12/B11422) | susceptibility category (S/I/R) (host strain YMC16/12/B11422) | antibiotic susceptibility S/I/R (host strain YMC16/12/B11449) | susceptibility category (S/I/R) (host strain YMC16/12/B11449) | antibiotic susceptibility S/I/R (host strain YMC16/12/B13325) | susceptibility category (S/I/R) (host strain YMC16/12/B13325) | antibiotic susceptibility S/I/R (host strain YMC16/12/P503) | susceptibility category (S/I/R) (host strain YMC16/12/P503) | antibiotic susceptibility S/I/R (host strain YMC16/12/R4637) | susceptibility category (S/I/R) (host strain YMC16/12/R4637) | antibiotic susceptibility S/I/R (host strain YMC17/01/B8053) | susceptibility category (S/I/R) (host strain YMC17/01/B8053) | antibiotic susceptibility S/I/R (host strain YMC17/01/B10087) | susceptibility category (S/I/R) (host strain YMC17/01/B10087) | antibiotic susceptibility S/I/R (host strain YMC17/01/B12075) | susceptibility category (S/I/R) (host strain YMC17/01/B12075) | antibiotic susceptibility S/I/R (host strain YMC17/01/B13454) | susceptibility category (S/I/R) (host strain YMC17/01/B13454) | antibiotic susceptibility S/I/R (host strain YMC17/01/P518) | susceptibility category (S/I/R) (host strain YMC17/01/P518) | antibiotic susceptibility S/I/R (host strain YMC17/01/R2812) | susceptibility category (S/I/R) (host strain YMC17/01/R2812) | antibiotic susceptibility S/I/R (host strain YMC17/02/B14) | susceptibility category (S/I/R) (host strain YMC17/02/B14) | antibiotic susceptibility S/I/R (host strain YMC17/02/B87) | susceptibility category (S/I/R) (host strain YMC17/02/B87) | antibiotic susceptibility S/I/R (host strain YMC17/02/B721) | susceptibility category (S/I/R) (host strain YMC17/02/B721) | antibiotic susceptibility S/I/R (host strain YMC17/02/B4039) | susceptibility category (S/I/R) (host strain YMC17/02/B4039) | antibiotic susceptibility S/I/R (host strain YMC17/02/B4520) | susceptibility category (S/I/R) (host strain YMC17/02/B4520) | antibiotic susceptibility S/I/R (host strain YMC17/02/B8414) | susceptibility category (S/I/R) (host strain YMC17/02/B8414) | antibiotic susceptibility S/I/R (host strain YMC17/02/P523) | susceptibility category (S/I/R) (host strain YMC17/02/P523) | antibiotic susceptibility S/I/R (host strain YMC17/02/R541) | susceptibility category (S/I/R) (host strain YMC17/02/R541) | antibiotic susceptibility S/I/R (host strain YMC17/02/R2392) | susceptibility category (S/I/R) (host strain YMC17/02/R2392) | antibiotic susceptibility S/I/R (host strain YMC17/03/B4730) | susceptibility category (S/I/R) (host strain YMC17/03/B4730) | antibiotic susceptibility S/I/R (host strain YMC17/03/B5000) | susceptibility category (S/I/R) (host strain YMC17/03/B5000) | antibiotic susceptibility S/I/R (host strain YMC17/03/P971) | susceptibility category (S/I/R) (host strain YMC17/03/P971) | antibiotic susceptibility S/I/R (host strain YMC17/03/R348) | susceptibility category (S/I/R) (host strain YMC17/03/R348) | antibiotic susceptibility S/I/R (host strain YMC17/03/R585) | susceptibility category (S/I/R) (host strain YMC17/03/R585) | antibiotic susceptibility S/I/R (host strain YMC17/03/R1888) | susceptibility category (S/I/R) (host strain YMC17/03/R1888) | antibiotic susceptibility S/I/R (host strain YMC17/03/R3279) | susceptibility category (S/I/R) (host strain YMC17/03/R3279) | antibiotic susceptibility S/I/R (host strain YMC17/03/R4077) | susceptibility category (S/I/R) (host strain YMC17/03/R4077) | antibiotic susceptibility S/I/R (host strain YMC17/03/R4607) | susceptibility category (S/I/R) (host strain YMC17/03/R4607) | antibiotic susceptibility S/I/R (host strain YMC17/04/R488) | susceptibility category (S/I/R) (host strain YMC17/04/R488) | antibiotic susceptibility S/I/R (host strain YMC17/04/R640) | susceptibility category (S/I/R) (host strain YMC17/04/R640) | antibiotic susceptibility S/I/R (host strain YMC/17/05/R1095) | susceptibility category (S/I/R) (host strain YMC/17/05/R1095)
S: antibiotic susceptibility S/I/R (host strain YMC17/02/B4864) | susceptibility category (S/I/R) (host strain YMC17/02/B4864)
